Measured values: patent US20240210412A1, “SULFONYL-TRIAZOLE COMPOUNDS USEFUL AS LIGANDS AND INHIBITORS OF PROSTAGLANDIN REDUCTASE 2” (University of Virginia Patent Foundation, priority 2021, published 2024)
Entries after “also recorded” stand apart in the source; their conditions may differ.

Biological target: T1, Fumarylacetoacetase (FAH) (Homo sapiens, UniProt P16930)
T1 construct: FLAG; host or cells: HEK293T
Assay: gel-based ABPP, HHS-475 probe, HEK293T cells expressing recombinant FAH
Assay type: cell-based
Details: live HEK293T cells, ligand 25 μM or varying, 2 h; HHS-475 100 μM
Description: HEK293T cells at 30-50% confluency were transfected with 2.6 μg of FAH or PTGR2 plasmid DNA in a serum-free media/polyethyleneimine solution for 48 hrs. The cells were washed once with warm, sterile DPBS (1×, 5 mL), and then 10 mL of serum-free media (supplemented with 1% L-glutamine) containing either DMSO or SuTEx fragment (in DMSO) was added. After 2 hrs, the cells were treated with 100 μM of SuTEx alkyne probe (HHS-475, 10 μL of 1000× DMSO stock) and incubated for an additional 2 hrs. The media was aspirated and cells washed with cold PBS (5 mL) and harvested. Cells were spun at 500×g for 5 min at 4° C. and supernatant was removed. Pellets were resuspended in 1 mL of cold DPB S and spun at 1,400×g for 3 min at 4° C. and supernatant was removed. […] The samples were analyzed by SDS-PAGE (30 μL) and imaged by in-gel fluorescence scanning.
Competitive gel-based chemoproteomic assays were performed using recombinant proteins from select targets to verify our LC-MS findings. […] Quantitative chemical proteomic studies identified HHS-0401 as a ligand for the Y244 site of FAH. These findings were confirmed by treating HEK293T cells expressing recombinant FAH with SuTEx ligands (25 μM, 2 hours, 37° C.) followed by labeling with HHS-475 probe (100 μM, 2 hours, 37° C.), cell lysis, and conjugation with rhodamine azide by CuAAC to visualize probe-modified proteins using in-gel fluorescence scanning.

T1 sequence (P16930 whole entry): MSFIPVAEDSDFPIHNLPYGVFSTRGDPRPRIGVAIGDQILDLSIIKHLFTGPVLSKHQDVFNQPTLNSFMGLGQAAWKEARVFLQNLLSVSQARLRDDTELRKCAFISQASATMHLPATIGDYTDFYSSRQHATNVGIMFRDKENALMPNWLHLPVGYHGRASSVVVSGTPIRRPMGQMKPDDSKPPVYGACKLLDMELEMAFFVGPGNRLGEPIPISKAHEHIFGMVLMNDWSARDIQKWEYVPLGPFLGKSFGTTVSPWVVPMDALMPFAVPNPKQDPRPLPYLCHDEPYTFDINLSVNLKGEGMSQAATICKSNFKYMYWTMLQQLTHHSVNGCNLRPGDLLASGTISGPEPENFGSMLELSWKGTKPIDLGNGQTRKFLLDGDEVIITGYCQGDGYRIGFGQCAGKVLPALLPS

SMILES: O=C(NCc1ccccc1)c1ccc(S(=O)(=O)n2cncn2)cc1 [HHS-0401, 4-((1H-1,2,4-triazol-1-yl)sulfonyl)-N-benzylbenzamide]
- blockade of HHS-475 labeling of FAH: blocked HHS-475 labeling of FAH; also recorded: competing probe labeling of recombinant FAH in a concentration-dependent manner
